Source: patent US12589087B2, “Enantiomer selective action on neurotransmission” (The Board of Trustees of the Leland Stanford Junior …, priority 2021, dated 2026)

Key:
[1] = test system: mouse cerebral synaptosomes; test: Synaptosomal neurotransmitter uptake assay; assay type: cell-based; conditions: 10 μM substrate; for transport into synaptosomes: 37° C.
Protocol: To each tube, 5 μL of a test compound solution (final concentration 10 μM) in Buffer KRP or Buffer KRP alone were added. Samples were incubated at 4° C. or 37° C. for 1, 10, or 30 min and then immediately centrifuged and washed twice by resuspension-centrifugation with Buffer S (0.5 mL). Resulting pellets were resuspended in 170 μL of 0.1% aqueous formic acid and mixed with 330 μL of ACN.
96-well plate experiments: 250 μL aliquots of the synaptosome suspension were transferred to two 0.8-mL 96 well plates, one on ice (0° C. samples only) and one in a thermoblock (37° C. samples only), and equilibrated for 10 min. 5 μL of a test compound (0.5 mM; final concentration: 10 μM) in Buffer KRP or Buffer KRP blank were added 10, 20 or 30 min before the incubation termination. “0 min” samples were prepared by placing the test compound solution in a separate pre-chilled V-shape bottom 2-mL 96 well plate; at the end of incubation 200 μL aliquots of all samples were transferred to the 2-mL 96 well plate and centrifuged (2,500 g for 15 min at 4° C.) immediately. The resulting pellets were rinsed with Buffer KRP, followed by centrifugation, twice, then resuspended in 200 μL of 60% ACN containing 2.5 μM Glu-d5 as internal standard and stored at −80° C. until analysis.
Synaptosome uptake and high potassium-induced release assays were performed as described in Example 1. Uptake assays used 250 μL aliquots of the synaptosome suspension transferred to a pre-chilled 0.8 mL 96 well plate. 5 μL of a test compound solution (0.5 mM; final concentration: 10 μM to compare directly to our previous work was added to each well and incubated at 0° C. or 37° C. After 10, 20 or 30 min, samples were chilled on ice and immediately sedimented (2,500 g for 15 min at 4° C.) and washed with Buffer S (0.5 mL, ×2). Resulting pellets were resuspended in 200 μL of 60% ACN containing 5 μM GABA-d6 and stored at −80° C. until analysis. Potassium-induced release assay used 500 μL aliquots of the synaptosome suspension transferred to pre-chilled microcentrifuge tubes. 2.5 μL of a test compound solution (20 mM; final concentration: 100 μM) in Buffer KRP was added to each tube and incubated for 15 min at 37° C., briefly chilled on ice, and then immediately sedimented (8,000 g for 4 min at 4° C.) and washed with Buffer KRP, followed by centrifugation, twice. The resulting pellets were resuspended in 500 μL of Buffer KRP or Buffer K-KRP and incubated for 5, 10 or 15 min at 37° C., sedimented (8,000 g for 4 min at 4° C.), and washed with Buffer KRP. Resulting pellets were resuspended in 400 μL of 60% ACN containing 2.5 μM GABA-d6 as internal standard and stored at −80° C. until analysis.

GluN2A = target: T1, GluN2A (Homo sapiens, UniProt Q12879); test: FLIPR functional assay, HEK 293 cells (agonist/PAM/antagonist); assay type: cell-based; conditions: top concentration 100 μM, read-out: IC50, functional antagonist receptor assay
T1 construct: host or cells: HEK 293 (stably expressing)
Protocol: Functional assays of all GABAA, NMDA (GluN2A-GluN2D) and AMPA (GluA2) receptor subunits were performed by SB Drug Discovery as a part of their CNS discovery panel using FLIPR technology. Briefly, receptor-expressing HEK 293 cell lines were incubated in a red membrane potential dye in HEPES:HBSS pH 7.4 buffer and the fluorescence (λex: 488, λex: 510-570) was monitored over time as the test compounds and/or reference compounds were added to the solution. In agonist assay, only test compounds were added. In positive allosteric modulator assay, cells were preincubated with test compounds and then low concentration (approximately EC20) of an appropriate agonist was added. In antagonist assay, cells were preincubated with test compounds and then high concentration (approximately EC80) of an appropriate agonist was added. For GABAA assays, GABA was used as the agonist, picrotoxin was used as the reference antagonist and allopregnanolone was used as the reference positive allosteric modulator (PAM). For NMDA assays, a mixture of glutamate, glycine and CaCl2 was used as the agonist, MK801 was the reference antagonist and pregnenolone sulfate or GNE 9278 were used as reference PAMs. For AMPA assays, glutamate was used as the agonist, CNQX was the reference antagonist and cyclothiazide was used as the reference PAM. All compounds were tested at 7 concentration points in triplicate and EC50/IC50 was determined where applicable. Functional GABAB assay was performed by Eurofins Discovery (Cerep) using Ca^2+-dependent fluorimetry in RBL cells expressing human GABAB (B1/B2) receptor. All compounds were tested at a single concentration of 100 uM in triplicate.
All receptor assays were performed exactly as described in Example 1. Functional assays of all GABAA, NMDA (GluN2A-GluN2D) and AMPA (GluA2) receptor subunits were performed by SB Drug Discovery as a part of their CNS discovery panel using FLIPR technology. All compounds were tested at 7 concentrations in triplicate and EC50/IC50 was determined where applicable. Functional GABAB assay was performed by Eurofins Discovery (Cerep) using Ca^2+-dependent fluorimetry in RBL cells expressing human GABAB (B1/B2) receptor. All compounds were tested at a single concentration of 100 uM in triplicate. Nonspecific AMPA, kainate and NMDA binding assays were performed by Eurofins Discovery (Cerep) using rat cerebral cortex membranes and radiolabeled [^3H]AMPA, [^3H]kainic acid and [^3H]CGP 39653, respectively. All compounds were tested at a single concentration of 100 uM in triplicate. mGluR1, mGluR2, mGluR5 and GABAB binding assays were performed by Eurofins Discovery. All compounds were tested at a single concentration of 100 uM in triplicate.

Line 61 mice = test: Transgenic α-synuclein mouse model, tapered beam test; assay type: in vivo
Source text: Line 61 mice overexpress human α-synuclein under control of the mouse Thy-1 promoter. The transgene is X-linked so females have variable transgene expression; for this reason, we focused on male mice. […] Categorical data from the tapered beam task were unblinded and analyzed by X square test (P<0.005).

Line 41 mice = test: Transgenic Aβ model of AD, behavior tests; assay type: in vivo; conditions: 10 mg/kg/d IP for 6 weeks
Protocol: Cerebral Aβ accumulation is a core feature of AD. Since memantine, a glutamate receptor subtype antagonist is an approved treatment for people with AD, we tested whether our false glutamatergic neurotransmitter might be therapeutic in a transgenic model of AD. Four month old Line 41 male mice were treated with S-2MeGlu at 10 mg/kg/d IP for 6 weeks with behavior tested using activity chamber, Y maze, novel object and novel place recognition, Morris water maze, and fear conditioning.

T1 sequence (Q12879 23-1464, other chains not shown): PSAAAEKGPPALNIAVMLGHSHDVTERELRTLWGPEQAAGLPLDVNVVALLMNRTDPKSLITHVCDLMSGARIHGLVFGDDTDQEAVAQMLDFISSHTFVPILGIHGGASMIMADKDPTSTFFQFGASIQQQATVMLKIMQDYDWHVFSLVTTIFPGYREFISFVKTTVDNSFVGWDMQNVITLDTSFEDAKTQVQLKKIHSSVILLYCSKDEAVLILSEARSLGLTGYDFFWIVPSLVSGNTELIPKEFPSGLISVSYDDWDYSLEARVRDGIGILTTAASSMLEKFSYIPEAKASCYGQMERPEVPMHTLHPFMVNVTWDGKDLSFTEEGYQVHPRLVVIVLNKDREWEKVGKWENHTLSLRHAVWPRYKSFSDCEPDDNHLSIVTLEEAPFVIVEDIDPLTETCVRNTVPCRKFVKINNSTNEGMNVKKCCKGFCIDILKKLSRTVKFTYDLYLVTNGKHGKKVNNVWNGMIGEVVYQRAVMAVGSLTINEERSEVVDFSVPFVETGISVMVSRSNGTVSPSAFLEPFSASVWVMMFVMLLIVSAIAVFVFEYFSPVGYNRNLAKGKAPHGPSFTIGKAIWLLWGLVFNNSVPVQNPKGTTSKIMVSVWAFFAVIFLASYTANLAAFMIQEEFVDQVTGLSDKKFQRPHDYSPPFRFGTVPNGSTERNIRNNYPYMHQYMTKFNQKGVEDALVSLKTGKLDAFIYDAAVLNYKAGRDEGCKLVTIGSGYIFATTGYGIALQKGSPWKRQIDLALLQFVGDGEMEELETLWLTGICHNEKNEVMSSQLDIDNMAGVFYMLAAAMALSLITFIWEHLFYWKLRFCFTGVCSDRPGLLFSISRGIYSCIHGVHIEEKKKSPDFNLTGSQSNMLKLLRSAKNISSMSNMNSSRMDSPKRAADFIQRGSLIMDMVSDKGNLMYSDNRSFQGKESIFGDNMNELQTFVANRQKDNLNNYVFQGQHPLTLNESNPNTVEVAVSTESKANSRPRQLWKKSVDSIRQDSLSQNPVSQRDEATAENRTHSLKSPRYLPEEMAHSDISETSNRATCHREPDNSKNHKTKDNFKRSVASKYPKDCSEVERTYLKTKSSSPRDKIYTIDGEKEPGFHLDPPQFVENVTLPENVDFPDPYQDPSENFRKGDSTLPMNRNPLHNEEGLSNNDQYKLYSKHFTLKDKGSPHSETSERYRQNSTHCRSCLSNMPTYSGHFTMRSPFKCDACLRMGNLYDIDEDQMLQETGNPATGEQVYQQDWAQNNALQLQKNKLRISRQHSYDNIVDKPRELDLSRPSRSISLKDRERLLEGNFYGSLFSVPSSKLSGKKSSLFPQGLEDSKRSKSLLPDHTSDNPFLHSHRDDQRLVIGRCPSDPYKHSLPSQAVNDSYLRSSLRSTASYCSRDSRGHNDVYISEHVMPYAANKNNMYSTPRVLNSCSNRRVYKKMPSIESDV

| Structure (SMILES) | transport into synaptosomes [1] | IC50 (GluN2A) [µM] | body weight or deaths (Line 61 mice; 5 or 50 mg/kg/d IP, seven days) | motor function, tapered beam (Line 61 mice; 7 days IP, high dose (50 mg/kg/d) S-2MeGlu, either dose (5 or 50 mg/kg/d) R-4APA) | α-synuclein accumulation in brain by immunohistochemistry vs vehicle (Line 61 mice; Line 61 mice) | Aβ accumulation by immunohistochemistry (Line 41 mice) | behavior tests (activity chamber, Y maze, novel object and place recognition, Morris water maze, fear conditioning) (Line 41 mice) | body weights or deaths (Line 41 mice) | synaptosomal uptake, faster than the R enantiomer ([1]; temperature-dependent uptake) |
| --- | --- | --- | --- | --- | --- | --- | --- | --- | --- |
| C[C@@](N)(CCC(=O)O)C(=O)O [(R)-2MeGlu, (R)-2-methylglutamic acid] | transported into synaptosomes | 69 |  |  |  |  |  |  |  |
| C[C@](N)(CCC(=O)O)C(=O)O [(S)-2MeGlu, (S)-2-methylglutamic acid] | transported into synaptosomes |  | no change in body weight or deaths | improved motor function similar to WT mice | no significant change | no change in Aβ accumulation | only rescued performance in the Y maze | no difference in body weights or any deaths | approximately 3 fold |
